Measured values as given in patent US20230263822A1, “MODULATION OF FACTOR 11 EXPRESSION” (Ionis Pharmaceuticals, Inc., priority 2008, published 2023).

Assay: Hematology assays in cynomolgus monkeys (Example 45)
Type: in vivo
Settings: for MCH / MCHC / MCV / RBC count / WBC count / hematocrit / hemoglobin: escalating dose regimen
Method: Groups, each consisting of two male and three female monkeys, were injected subcutaneously with ISIS 416838, ISIS 416850, ISIS 416858, ISIS 416864, or ISIS 417002 in escalating doses. Antisense oligonucleotide was administered to the monkeys at 5 mg/kg three times per a week for week 1; 5 mg/kg twice per week for weeks 2 and 3; 10 mg/kg three times per week for week 4; 10 mg/kg twice per week for weeks 5 and 6; 25 mg/kg three times per week for week 7; and 25 mg/kg twice per week for weeks 8, 9, 10, 11, and 12. One control group, consisting of two male and three female monkeys, was injected subcutaneously with PBS according to the same dosing regimen. An additional experimental group, consisting of two male and three female monkeys, was injected subcutaneously with ISIS 416850 in a chronic, lower dose regimen. Antisense oligonucleotide was administered to the monkeys at 5 mg/kg three times per week for week 1; 5 mg/kg twice per week for week 2 and 3; 10 mg/kg three times per week for week 4; and 10 mg/kg twice per week for weeks 5 to 12. Body weights were measured weekly. Blood samples were collected 14 days and 5 days before the start of treatment and subsequently once per week for Factor 11 protein activity analysis in plasma, fibrinogen measurement, PT and aPTT measurements, bleeding times, and measurement of various hematologic factors. On day 85, the monkeys were euthanized by exsanguination while under deep anesthesia, and organs harvested for further analysis.
The ISIS oligonucleotide, ISIS 416850, given with the chronic dose regimen is distinguished from the other oligonucleotides with an asterisk (*).

## ISIS 416858: MOE gapmer, nucleobases 1275 to 1318 of SEQ ID NO: 1 (Table 8) (antisense ACGGCATTGGTGCACAGTTT; MOE gapmer, wing and gap sizes not given here)
Day 64
  MCH: 22 pg
Day 71
  MCH: 22 pg
Day 78
  MCH: 23 pg
Day 85
  MCH: 22 pg
Day 8
  basophils: 0.3%
  eosinophils: 0.3%
  lymphocytes: 45%
  monocytes: 2.7%
  neutrophils: 51%
  platelet count: 391000 µL⁻¹
  reticulocytes: 1.2%
  MCH: 23 pg
  MCHC: 30 g/dL
  MCV: 77 fL
  RBC count: 5.6e+06 µL⁻¹
  WBC count: 12000 µL⁻¹
  hematocrit: 43%
  hemoglobin: 12.8 g/dL
Day 15
  basophils: 0.2%
  eosinophils: 0.3%
  lymphocytes: 43%
  monocytes: 2.2%
  neutrophils: 54%
  platelet count: 400000 µL⁻¹
  reticulocytes: 1.6%
  MCH: 23 pg
  MCHC: 31 g/dL
  MCV: 74 fL
  RBC count: 5.4e+06 µL⁻¹
  WBC count: 11000 µL⁻¹
  hematocrit: 40%
  hemoglobin: 12.6 g/dL
Day 22
  basophils: 0.2%
  eosinophils: 0.6%
  lymphocytes: 49%
  monocytes: 2.8%
  neutrophils: 47%
  platelet count: 316000 µL⁻¹
  reticulocytes: 1.3%
  MCH: 24 pg
  MCHC: 30 g/dL
  MCV: 77 fL
  RBC count: 5.3e+06 µL⁻¹
  WBC count: 11000 µL⁻¹
  hematocrit: 41%
  hemoglobin: 12.4 g/dL
Day 29
  basophils: 0.2%
  eosinophils: 0.6%
  lymphocytes: 51%
  monocytes: 3.8%
  neutrophils: 43%
  platelet count: 336000 µL⁻¹
  reticulocytes: 1.5%
  MCH: 23 pg
  MCHC: 30 g/dL
  MCV: 78 fL
  RBC count: 5.3e+06 µL⁻¹
  WBC count: 12000 µL⁻¹
  hematocrit: 41%
  hemoglobin: 12.3 g/dL
Day 36
  basophils: 0.3%
  eosinophils: 0.4%
  lymphocytes: 49%
  monocytes: 2.9%
  neutrophils: 47%
  platelet count: 371000 µL⁻¹
  reticulocytes: 1.6%
  MCH: 23 pg
  MCHC: 31 g/dL
  MCV: 75 fL
  RBC count: 5.5e+06 µL⁻¹
  WBC count: 12000 µL⁻¹
  hematocrit: 40%
  hemoglobin: 12.6 g/dL
Day 43
  basophils: 0.3%
  eosinophils: 0.3%
  lymphocytes: 51%
  monocytes: 3.1%
  neutrophils: 45%
  platelet count: 342000 µL⁻¹
  reticulocytes: 1.3%
  MCH: 23 pg
  MCHC: 31 g/dL
  MCV: 74 fL
  RBC count: 5.5e+06 µL⁻¹
  WBC count: 11000 µL⁻¹
  hematocrit: 40%
  hemoglobin: 12.4 g/dL
Day 50
  basophils: 0.4%
  eosinophils: 0.4%
  lymphocytes: 48%
  monocytes: 4.6%
  neutrophils: 46%
  platelet count: 331000 µL⁻¹
  reticulocytes: 1.5%
  MCH: 23 pg
  MCHC: 30 g/dL
  MCV: 76 fL
  RBC count: 5.5e+06 µL⁻¹
  WBC count: 13000 µL⁻¹
  hematocrit: 41%
  hemoglobin: 12.2 g/dL
Day 57
  basophils: 0.2%
  eosinophils: 0.3%
  lymphocytes: 51%
  monocytes: 3.8%
  neutrophils: 44%
  platelet count: 333000 µL⁻¹
  reticulocytes: 1.4%
  MCH: 22 pg
  MCHC: 31 g/dL
  MCV: 74 fL
  RBC count: 5.6e+06 µL⁻¹
  WBC count: 13000 µL⁻¹
  hematocrit: 41%
  hemoglobin: 12.7 g/dL
Day 64
  basophils: 0.4%
  eosinophils: 0.4%
  lymphocytes: 56%
  monocytes: 4.4%
  neutrophils: 37%
  platelet count: 295000 µL⁻¹
  reticulocytes: 1.0%
  MCHC: 30 g/dL
  MCV: 73 fL
  RBC count: 5.7e+06 µL⁻¹
  WBC count: 12000 µL⁻¹
  hematocrit: 42%
  hemoglobin: 12.8 g/dL
Day 71
  basophils: 0.4%
  eosinophils: 0.9%
  lymphocytes: 66%
  monocytes: 4.9%
  neutrophils: 26%
  platelet count: 286000 µL⁻¹
  reticulocytes: 1.3%
  MCHC: 30 g/dL
  MCV: 75 fL
  RBC count: 5.6e+06 µL⁻¹
  WBC count: 13000 µL⁻¹
  hematocrit: 42%
  hemoglobin: 12.7 g/dL
Day 78
  basophils: 0.4%
  eosinophils: 0.5%
  lymphocytes: 54%
  monocytes: 4.9%
  neutrophils: 39%
  platelet count: 262000 µL⁻¹
  reticulocytes: 1.2%
  MCHC: 32 g/dL
  MCV: 72 fL
  RBC count: 5.4e+06 µL⁻¹
  WBC count: 11000 µL⁻¹
  hematocrit: 39%
  hemoglobin: 12.4 g/dL
Day 85
  basophils: 0.3%
  eosinophils: 0.6%
  lymphocytes: 52%
  monocytes: 6.1%
  neutrophils: 40%
  platelet count: 267000 µL⁻¹
  reticulocytes: 1.3%
  MCHC: 31 g/dL
  MCV: 72 fL
  RBC count: 5.5e+06 µL⁻¹
  WBC count: 11000 µL⁻¹
  hematocrit: 39%
  hemoglobin: 11.9 g/dL
Day −5
  basophils: 0.3%
  eosinophils: 1.3%
  lymphocytes: 49%
  monocytes: 2.8%
  neutrophils: 46%
  platelet count: 463000 µL⁻¹
  reticulocytes: 0.9%
  MCH: 23 pg
  MCHC: 31 g/dL
  MCV: 75 fL
  RBC count: 5.6e+06 µL⁻¹
  WBC count: 14000 µL⁻¹
  hematocrit: 42%
  hemoglobin: 13.2 g/dL
Day −14
  basophils: 0.3%
  eosinophils: 0.7%
  lymphocytes: 58%
  monocytes: 2.8%
  neutrophils: 37%
  platelet count: 419000 µL⁻¹
  reticulocytes: 1.0%
  MCH: 24 pg
  MCHC: 31 g/dL
  MCV: 77 fL
  RBC count: 5.6e+06 µL⁻¹
  WBC count: 14000 µL⁻¹
  hematocrit: 43%
  hemoglobin: 13.2 g/dL
